Consider two compounds from patent EP4671240A1, “SALT CONTAINING AROMATIC RING DERIVATIVE ANTAGONIST, PREPARATION METHOD THEREFOR, AND APPLICATION THEREOF” (Jiangsu Hansoh Pharmaceutical Group Co., Ltd., priority 2023, dated 2024).

Usually IC50 stands for the concentration that inhibits the measured activity by half. A lower IC50 goes with inhibition by little substance.

The assay concerns the target T1, CYP450 1A2 (Homo sapiens, UniProt P05177).
T1 construct: Human liver microsome incubation system was used; from tissue; host or cells: human liver microsomes
T1 sequence (P05177 1-516): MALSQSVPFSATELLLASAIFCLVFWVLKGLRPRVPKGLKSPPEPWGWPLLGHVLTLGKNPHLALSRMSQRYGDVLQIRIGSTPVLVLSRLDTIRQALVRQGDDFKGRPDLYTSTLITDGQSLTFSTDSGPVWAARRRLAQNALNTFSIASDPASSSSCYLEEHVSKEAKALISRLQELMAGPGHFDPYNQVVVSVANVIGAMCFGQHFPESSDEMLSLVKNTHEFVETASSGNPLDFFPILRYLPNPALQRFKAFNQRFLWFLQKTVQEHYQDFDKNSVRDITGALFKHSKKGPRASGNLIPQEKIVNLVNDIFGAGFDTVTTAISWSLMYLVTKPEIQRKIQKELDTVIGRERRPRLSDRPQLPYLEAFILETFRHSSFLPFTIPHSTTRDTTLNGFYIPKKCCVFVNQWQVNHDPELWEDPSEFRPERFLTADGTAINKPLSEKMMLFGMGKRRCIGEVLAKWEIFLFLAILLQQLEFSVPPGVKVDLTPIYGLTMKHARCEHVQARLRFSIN
The assay is described as follows: CYP enzyme single-point inhibition assay, 1A2. The following applies: human liver microsomes, single-point method. Format: in vitro ADME. The method, then:
Human liver microsome incubation system was used, and the single-point method was used to quickly predict the inhibition on CYP450 enzyme subtypes (1A2, 2C19, 2D6, 3A4-M, and 3A4-T) by compounds.
For 2.5 mM NADPH, 4.165 mg of NADPH (reduced nicotinamide adenine dinucleotide phosphate) was weighed and 100 mM phosphate buffer was added to a final volume of 2 mL. For 0.25 mg/mL microsomes, 50 µL of 20 mg/mL microsomes was mixed with […] of 100 mM phosphate buffer evenly.
The test example compounds were weighed, diluted to 10 mM with DMSO, and then diluted to 100 µM with 100 mM phosphate buffer.
• 1. Liver microsomes (40 µL), substrate (10 µL), and test compound (10 µL) were added to a 96-well plate, and the mixture was pre-incubated for 3 min. • 2. NADPH (40 µL) was added. • 3. At 20 min, acetonitrile stop solution containing internal standard (300 µL) was added. • 4. The mixture was centrifuged and the sample was loaded.
A general note: Liver microsomes are a subcellular fraction often used to study metabolism.

Molecules are shown by their SMILES.

Consider `[2H]C([2H])(c1ccc(-c2ccccc2S(=O)(=O)Nc2noc(C)c2Cl)c(COCC)c1)N1C(=O)C2(CCCC2)N=C1CCCC` [Example 2, 4'-((2-Butyl-4-oxo-1,3-diazaspiro[4.4]non-1-en-3-yl)methyl-d2)-N-(4-chloro-5-methylisoxazol-3-yl)-2'-(ethoxymethyl)-[1,1'-biphenyl]-2-sulfonamide], for which the IC50 is above 100 µM. For `CCCCC1=NC2(CCCC2)C(=O)N1Cc1ccc(-c2ccccc2S(=O)(=O)Nc2noc(C)c2Cl)c(COCC)c1` [Example 8, 2-[4-[(2-Butyl-4-oxo-1,3-diazaspiro[4.4]non-1-en-3-yl)methyl]-2-(ethoxymethyl)phenyl]-N-(4-chloro-5-methyl-isoxazol-3-yl)benzenesulfonamide] the value was above 100 µM.
